pIC50: −log10 of the molar value.
Columns and labels:
OVCAR-3 cells = experiment: Inhibition on OVCAR-3 cell proliferation (CellTiter-Glo); format: cell-based; settings: Homo sapiens, OVCAR-3 cells (TP53 R248Q mutation), 72 hours
Procedure: Influences of the compounds of the present invention on OVCAR-3 cell proliferation were determined by the following method. OVCAR-3 cells (containing TP53 R248Q mutation) were purchased from the Cell Bank of Shanghai Institute of Biochemistry and Cell Biology, Chinese Academy of Sciences, and cultured in an RPMI 1640 culture medium containing […], 100 U penicillin and 100 μg/mL streptomycin. A cell viability was determined by a CellTiter-Glo® Luminescent Cell Viability Assay kit (Promega, article number G7573).
An experimental method was operated according to steps in the instruction of the kit, which was briefly described as follows: a test compound was dissolved in DMSO first to prepare a 10 mM stock solution, then the stock solution was diluted with the above RPMI 1640 culture medium to prepare a test sample, and a final concentration of the compound was in a range of 1000 nM-0.015 nM. Cells in a logarithmic growth phase were inoculated into a 96-well cell culture plate at a density of 1000 cells per well, cultured in a 5% CO2 incubator at 37° C. overnight, and then the test compound was added to continuously culture for 72 hours. After the culture was ended, 50 μL of CellTiter-Glo detection solution was added to each well, the plates were shaken for 5 minutes, and then allowed to stand for 10 minutes, and subsequently, a luminous value of each well of sample was read by a microplate reader in a Luminescence mode. By comparing with a numerical value of a control group (0.3% DMSO), a percentage inhibition rate of the compound at each concentration was calculated, and then nonlinear regression analysis was carried out based on concentration logarithm-inhibition rate of the compound in GraphPad Prism 5 software, so as to obtain an IC50 value of the compound in inhibition on cell proliferation, which are shown in Table 1.

[1] = test system: OVCAR-3 human ovarian adenocarcinoma tumor fragment xenograft; experiment: Pharmacodynamic testing in OVCAR-3 tumor fragment xenograft model; format: in vivo, BALB/c nude mice; settings: 16 days after administration; for Relative tumor volume (x ± S) / Tumor volume (x ± S): mean ± standard error; for Tumor volume (x ± S): in mm³
Procedure: An anti-tumor effect of Compound 1 of the present invention in a BALB/c nude mouse animal model with subcutaneous OVCAR-3 human ovarian adenocarcinoma tumor fragment xenograft was evaluated.
BALB/c nude mice, female, 6-7 weeks old, purchased from Jiangsu Gempharmatech Biotechnology Co., Ltd.
Mice in a solvent control group were given DMA:CrEL:5% GS=10:10:80 (v:v:v).
AMG650: a proper amount of AMG-650 was weighed, proper amounts of DMA, CrEL and 5% GS were added in sequence, and the obtained system was evenly mixed by ultrasonic vortex to prepare 0.8 mg/mL and 0.4 mg/mL preparations respectively, wherein DMA, CrEL and 5% GS=10:10:80 (v:v:v).
Compound 1: a proper amount of Compound 1 was weighed, proper amounts of DMA, CrEL and 5% GS were added in sequence, and the obtained system was evenly mixed by ultrasonic vortex to prepare 0.8 mg/mL and 0.4 mg/mL preparations respectively, wherein DMA, CrEL and 5% GS=10:10:80 (v:v:v).
An appropriate OVCAR-3 tumor-bearing animal was selected, a 1 mm×1 mm×1 mm OVCAR-3 tumor fragment was acquired aseptically and placed into normal saline for later use, which was used for subcutaneous tumor inoculation in a right side of back of the BALB/c nude mice.
About 1 mm×1 mm×1 mm OVCAR-3 tumor fragment was subcutaneously inoculated in the right side of back of the female BALB/c nude mice. When an average tumor volume reached about 100-250 mm^3, the mice were randomly grouped according to the tumor size, with 6 mice in each group.
Animals in each group were given the test compound once per day according to an animal weight at a fixed time every day by oral administration (po), the animals started to be administered with the test compound for the first time on the day of grouping for 22 consecutive days, and the animal weight was recorded every day. • The 1st group (G1) was a solvent control group; • The 2nd group (G2) and the 3rd group (G3) were orally administered with AMG-650 at administration dosages of 8 mg/kg and 4 mg/kg respectively once per day (QD); and • The 4th group (G4) and the 5th group (G5) were orally administered with Compound 1 at administration dosages of 8 mg/kg and 4 mg/kg respectively once per day (QD).
Tumor formation at an inoculation site of the animals in each group was observed, and a tumor volume was measured twice per week, and calculated according to the following formula: • a tumor volume (TV), a relative tumor volume (RTV), a relative tumor proliferation rate (T/C) and a relative tumor inhibition rate (TGI) were calculated according to the following formulas:
TV (tumor volume)=½×a×b^2, wherein a and b respectively represented a tumor length and a tumor width; (1)
RTV (relative tumor volume)=Vt/V0, wherein V0 was a tumor volume measured at the time of grouping, and Vt was a tumor volume in each measurement; (2)
T/C (%)=TRTV/CRTV×100%, wherein TRTV was RTV of a treatment group, and CRTV was RTV of a solvent control group; and (3)
TGI %=(1−T/C)×100%, wherein T and C were relative tumor volumes of the treatment group and the solvent control group at a specific time point respectively. (4)

For CCS(=O)(=O)Nc1ccc(C(=O)Nc2cc3c(c(N4CCC(F)(F)CC4)c2)OCC3)c(N2CCC3(CC2)CC3)c1 [Example 1, N-(7-(4,4-difluoropiperidin-1-yl)-2,3-dihydrobenzofuran-5-yl)-4-(ethylsulfonamido)-2-(6-azaspiro[2.5]octan-6-yl)benzamide], the pIC50 (OVCAR-3 cells) was 9.12, the TGI ([1]; 4 mg/kg po QD) was 81.3% and the “Relative tumor volume (x ± S)” value ([1]; 4 mg/kg po QD) was 0.61 ± 0.11. The “Tumor volume (x ± S)” value ([1]; 4 mg/kg po QD) was 120 ± 27, the TGI ([1]; 8 mg/kg po QD) was 95.2% and the “Relative tumor volume (x ± S)” value ([1]; 8 mg/kg po QD) was 0.16 ± 0.03. The “Tumor volume (x ± S)” value ([1]; 8 mg/kg po QD) was 31 ± 8.
